What follows are compounds tested against T1, autotaxin (ATX) (Homo sapiens, UniProt Q13822) (assay: Native Autotaxin Choline Release Assay). Details: autotaxin in conditioned medium from human melanoma cell line; choline released from LPC; read-out: MDA-MB-435S Assay IC50.
T1 construct: conditioned medium from the human melanoma cell line, MDA-MB-4355, which endogenously expresses autotaxin; host or cells: MDA-MB-435S human melanoma cells; serum-free conditioned medium, concentrated 20-fold
Format: biochemical
Outline: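 Native ATX from conditioned serum-free, phenol-red-free DMEM of confluent cells cultured 48 h; LPC as substrate. Released choline detected with choline oxidase/peroxidase/4-aminoantipyrine colour mix in 50 mM Tris pH 8, 10 min at 37 °C, absorbance 555 nm; choline quantified against standard curve, equated to LPA formed.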

| IC50 [nM] | SMILES |
| --- | --- |
| 300 to 1000 | Cc1c(Sc2cccc(C(=O)O)c2)c2ccc(Cl)cc2n1Cc1ccccc1 [Compound 1-15, 3-(1-Benzyl-6-chloro-2-methyl-1H-indol-3-ylsulfanyl)-benzoic acid] |
| < 300 | CCn1cc(-n2c(C)c(Sc3cc(F)cc(C(=O)O)c3)c3ccc(Cl)c(F)c32)cn1 [Compound 4-2, 3-[6-Chloro-1-(1-ethyl-1H-pyrazol-4-yl)-7-fluoro-2-methyl-1H-indol-3-ylsulfanyl]-5-fluoro-benzoic acid] |
| < 300 | CCn1cc(-n2c(C)c(Sc3cccc(CC(=O)O)c3F)c3ccc(Cl)c(F)c32)cn1 [Compound 4-15, {3-[6-Chloro-1-(1-ethyl-1H-pyrazol-4-yl)-7-fluoro-2-methyl-1H-indol-3-ylsulfanyl]-2-fluoro-phenyl}-acetic acid] |
| < 300 | CCCn1cc(-n2c(C)c(Sc3ccc(C)c(C(=O)O)c3)c3ccc(Cl)c(F)c32)cn1 [Compound 4-13, 5-[6-Chloro-1-(1-propyl-1H-pyrazol-4-yl)-7-fluoro-2-methyl-1H-indol-3-ylsulfanyl]-2-methyl-benzoic acid] |
| < 300 | CCn1cc(-n2c(C)c(Sc3cc(F)cc(C(=O)O)c3)c3ccc(Cl)cc32)cn1 [Compound 1-129, 3-[6-Chloro-1-(1-ethyl-1H-pyrazol-4-yl)-2-methyl-1H-indol-3-ylsulfanyl]-5-fluoro-benzoic acid] |
| < 300 | CCn1cc(-n2c(C)c(Sc3ccc(F)c(C(=O)O)c3)c3ccc(Cl)cc32)cn1 [Compound 1-76, 5-[6-chloro-1-(1-ethyl-1H-pyrazol-4-yl)-2-methyl-1H-indol-3-ylsulfanyl]-2-fluoro-benzoic acid] |
| > 1000 | COc1ccc(CC(=O)O)cc1Sc1c(C)n(-c2cnn(C)c2)c2cc(Cl)ccc12 [Compound 1-47, {3-[6-Chloro-2-methyl-1-(1-methyl-1H-pyrazol-4-yl)-1H-indol-3-ylsulfanyl]-4-methoxy-phenyl}-acetic acid] |
| > 1000 | CCn1cc(-n2c(C)c(Sc3cc(C)cc(C(=O)O)c3)c3ccc(Cl)cc32)cn1 [Compound 1-52, 3-[6-Chloro-1-(1-ethyl-1H-pyrazol-4-yl)-2-methyl-1H-indol-3-ylsulfanyl]-5-methyl-benzoic acid] |
| > 1000 | Cc1c(Oc2cccc(CO)c2)c2ccc(Cl)cc2n1Cc1ccccc1 [Compound 2-4, [3-(1-Benzyl-6-chloro-2-methyl-1H-indol-3-yloxy)-phenyl]-methanol] |
| > 1000 | Cc1c(Sc2cccc(CC(=O)O)c2)c2ccc(Cl)cc2n1CC(C)C [Compound 1-7, [3-(6-Chloro-1-isobutyl-2-methyl-1H-indol-3-ylsulfanyl)-phenyl]-acetic acid] |
| 300 to 1000 | Cc1c(Sc2cccc(C(=O)O)c2)c2ccc(Br)cc2n1Cc1ccccc1 [Compound 1-10, 3-(1-Benzyl-6-bromo-2-methyl-1H-indol-3-ylsulfanyl)-benzoic acid] |
| > 1000 | Cc1c(Sc2cc(C(=O)O)cc(C(F)(F)F)c2)c2ccc(Cl)cc2n1-c1cccnc1 [Compound 1-46, 3-(6-Chloro-2-methyl-1-pyridin-3-yl-1H-indol-3-ylsulfanyl)-5-trifluoromethyl-benzoic acid] |
| < 300 | Cc1cncc(-n2c(C)c(Sc3cccc(CC(=O)O)c3)c3ccc(Cl)cc32)c1 [Compound 1-48, {3-[6-Chloro-2-methyl-1-(5-methyl-pyridin-3-yl)-1H-indol-3-ylsulfanyl]-phenyl}-acetic acid] |
| < 300 | CCCn1cc(-n2c(C)c(Sc3cccc(C(=O)O)c3)c3cc(F)c(Cl)cc32)cn1 [Compound 3-27, 3-[6-Chloro-5-fluoro-2-methyl-1-(1-propyl-1H-pyrazol-4-yl)-1H-indol-3-ylsulfanyl]-benzoic acid] |
| < 300 | Cc1c(Sc2cccc(C(=O)O)c2)c2ccc(Cl)cc2n1Cc1ccncc1 [Compound 1-23, 3-(6-Chloro-2-methyl-1-pyridin-4-ylmethyl-1H-indol-3-ylsulfanyl)-benzoic acid] |
| < 300 | Cc1c(Sc2c(C)n(-c3cnn(C)c3)c3cc(Cl)ccc23)cccc1C(=O)O [Compound 1-63, 3-[6-Chloro-2-methyl-1-(1-methyl-1H-pyrazol-4-yl)-1H-indol-3-ylsulfanyl]-2-methyl-benzoic acid] |
| < 300 | Cc1c(Sc2cccc(C(=O)O)c2)c2ccc(Cl)c(F)c2n1-c1cnn(C(C)(C)C)c1 [Compound 3-60, 3-[1-(1-tert-Butyl-1H-pyrazol-4-yl)-6-chloro-7-fluoro-2-methyl-1H-indol-3-ylsulfanyl]-benzoic acid] |
| > 1000 | Cc1c(Sc2cccc(C(=O)O)c2)c2ccc(-c3ccccc3)cc2n1Cc1ccccc1 [Compound 1-11, 3-(1-Benzyl-2-methyl-6-phenyl-1H-indol-3-ylsulfanyl)-benzoic acid] |
| < 300 | COc1ccc(Cn2cc(-n3c(C)c(Sc4cccc(C(=O)O)c4)c4ccc(Cl)c(F)c43)cn2)cc1 [Compound 3-48, 3-{6-Chloro-7-fluoro-1-[1-(4-methoxy-benzyl)-1H-pyrazol-4-yl]-2-methyl-1H-indol-3-ylsulfanyl}-benzoic acid] |

| IC50 [nM] | SMILES |
| --- | --- |
| < 300 | Cc1cncc(-n2c(C)c(Sc3cccc(C(=O)O)c3)c3ccc(Cl)cc32)c1 [Compound 1-56, 3-[6-Chloro-2-methyl-1-(5-methyl-pyridin-3-yl)-1H-indol-3-ylsulfanyl]-benzoic acid] |
| > 1000 | O=C(O)c1cccc(Sc2c(C(F)(F)F)n(Cc3ccccc3)c3cc(Cl)ccc23)c1 [Compound 3-13, 3-(1-Benzyl-6-chloro-2-trifluoromethyl-1H-indol-3-ylsulfanyl)-benzoic acid] |
| < 300 | CCCn1cc(-n2c(C)c(Sc3cccc(CC(=O)O)c3F)c3ccc(Cl)c(F)c32)cn1 [Compound 4-12, {3-[6-Chloro-7-fluoro-2-methyl-1-(1-propyl-1H-pyrazol-4-yl)-1H-indol-3-ylsulfanyl]-2-fluoro-phenyl}-acetic acid] |
| > 1000 | Cc1ccc(C(=O)O)cc1Sc1c(C)n(-c2cnn(C)c2)c2cc(Cl)ccc12 [Compound 1-50, 3-[6-Chloro-2-methyl-1-(1-methyl-1H-pyrazol-4-yl)-1H-indol-3-ylsulfanyl]-4-methyl-benzoic acid] |
| < 300 | CCCCn1cc(-n2c(C)c(Sc3cccc(C(=O)O)c3)c3ccc(Cl)cc32)cn1 [Compound 1-72, 3-[1-(1-Butyl-1H-pyrazol-4-yl)-6-chloro-2-methyl-1H-indol-3-ylsulfanyl]-benzoic acid] |
| > 1000 | COC(=O)c1cccc(Oc2c(C)n(Cc3ccccc3)c3cc(Cl)ccc23)c1 [Compound 2-3, 3-(1-Benzyl-6-chloro-2-methyl-1H-indol-3-yloxy)-benzoic acid methyl ester] |
| < 300 | Cc1c(Sc2cccc(C(=O)O)c2)c2ccc(Cl)cc2n1-c1cccc(Cl)c1 [Compound 1-29, 3-[6-Chloro-1-(3-chloro-phenyl)-2-methyl-1H-indol-3-ylsulfanyl]-benzoic acid] |
| < 300 | CCOc1ccc(-n2c(C)c(Sc3cccc(C(=O)O)c3)c3ccc(Cl)cc32)cn1 [Compound 1-36, 3-[6-Chloro-1-(6-ethoxy-pyridin-3-yl)-2-methyl-1H-indol-3-ylsulfanyl]-benzoic acid] |
| > 1000 | Cc1c(Oc2cccc(CC(=O)O)c2)c2ccc(Cl)cc2n1Cc1ccccc1 [Compound 1-16, [3-(1-Benzyl-6-chloro-2-methyl-1H-indol-3-yloxy)-phenyl]-acetic acid] |
| < 300 | CCn1cc(-n2c(C)c(Sc3cccc(C(=O)O)c3F)c3ccc(Cl)cc32)cn1 [Compound 1-67, 3-[6-Chloro-2-methyl-1-(1-ethyl-1H-pyrazol-4-yl)-1H-indol-3-ylsulfanyl]-2-fluoro-benzoic acid] |
| > 1000 | Cc1c(Sc2cccc(C(=O)O)c2)c2ccc(Cl)cc2n1Cc1ccc(F)cc1 [Compound 1-18, 3-[6-Chloro-1-(4-fluoro-benzyl)-2-methyl-1H-indol-3-ylsulfanyl]-benzoic acid] |
| < 300 | CCCn1cc(-n2c(C)c(Sc3cccc(CC(=O)O)c3)c3ccc(Cl)c(F)c32)cn1 [Compound 3-37, {3-[6-chloro-7-fluoro-2-methyl-1-(1-propyl-1H-pyrazol-4-yl)-1H-indol-3-ylsulfanyl]-phenyl}-acetic acid] |
| > 1000 | Cc1c(Sc2cccc(C(=O)O)c2)c2ccc(Cc3ccccc3)cc2n1Cc1ccccc1 [Compound 1-13, 3-(1,6-Dibenzyl-2-methyl-1H-indol-3-ylsulfanyl)-benzoic acid] |
| < 300 | CCCn1cc(-n2c(C)c(Sc3ccc(C(F)(F)F)c(CC(=O)O)c3)c3ccc(Cl)c(F)c32)cn1 [Compound 4-14, {5-[6-Chloro-7-fluoro-2-methyl-1-(1-propyl-1H-pyrazol-4-yl)-1H-indol-3-ylsulfanyl]-2-trifluoromethyl-phenyl}-acetic acid] |
| > 1000 | Cc1[nH]c2cccc(F)c2c1Sc1cccc(CC(=O)O)c1 [Compound 3-5, [3-(4-Fluoro-2-methyl-1H-indol-3-ylsulfanyl)-phenyl]-acetic acid] |
| < 300 | Cc1c(Sc2cccc(C(=O)O)c2)c2ccc(Cl)cc2n1-c1cnn(-c2ccccc2)c1 [Compound 1-58, 3-[6-Chloro-2-methyl-1-(1-phenyl-1H-pyrazol-4-yl)-1H-indol-3-ylsulfanyl]-benzoic acid] |
| < 300 | CCn1cc(-n2c(C)c(Sc3cccc(C(=O)O)c3)c3cc(F)c(Cl)cc32)cn1 [Compound 3-26, 3-[6-Chloro-1-(1-ethyl-1H-pyrazol-4-yl)-5-fluoro-2-methyl-1H-indol-3-ylsulfanyl]-benzoic acid] |
| < 300 | CCn1cc(-n2c(C)c(Sc3cccc(C(=O)NS(C)(=O)=O)c3)c3ccc(Cl)c(F)c32)cn1 [Compound 3-29, N-{3-[6-Chloro-1-(1-ethyl-1H-pyrazol-4-yl)-7-fluoro-2-methyl-1H-indol-3-ylsulfanyl]-benzoyl}-methanesulfonamide] |

Source: patent US9000025B2, “Autotaxin inhibitors and uses thereof” (Amira Pharmaceuticals, Inc., priority 2010, dated 2015)
